This note sets out measurements from ChEMBL document CHEMBL1201862, “PubChem BioAssay data set” (2004).

In general, IC50 refers to the midpoint of a concentration-inhibition curve. A word on the EC50: it is the concentration giving half of the maximal effect. In general, CC50 refers to the concentration that lowers cell viability or growth by half. Broadly, the AC50 is the concentration at which the activity in the assay is half-maximal.

Test [1] addresses Bcl-2-like protein 10 (Homo sapiens, UniProt Q9HD36). Description: Bcl-B/TR3 peptide binding disruption – biochemical, fluorescence polarization, FITC-TR3 peptide, selectivity assay for Bfl-1 inhibitor project, primary screen (AID 748).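 Note: fluorescence polarization from a fluorescein-labelled TR3 peptide binding purified Bcl-B.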 In general terms: In fluorescence polarisation assays a small probe gives low polarisation when free and higher when bound to something large.

Test [2] addresses Wee1-like protein kinase (Homo sapiens, UniProt P30291). Put plainly: Dose Response Cell-based Assay for Inhibitors of Wee1 Degradation. [Related pubchem assays: 1410, 1321 ]. In kind it is functional.
The nature of test [3]: Luminescence Cell-Based Dose Response HTS to Identify Activators of Luciferase Translation or Activity in H4 […] Cells. [Related pubchem assays: 1829 (Project Summary), 1814 (Primary HTS)]. Format: functional.
The target of test [4] is G2/mitotic-specific cyclin-B1 (Homo sapiens, UniProt P14635). Put plainly: Counterscreen assay for inhibitors of Wee1 degradation: dose response cell-based assay to identify inhibitors of cyclin B degradation. [Related pubchem assays: 1410, 1321 ]. Format: functional.
Sequence of G2/mitotic-specific cyclin-B1 (P14635 whole entry): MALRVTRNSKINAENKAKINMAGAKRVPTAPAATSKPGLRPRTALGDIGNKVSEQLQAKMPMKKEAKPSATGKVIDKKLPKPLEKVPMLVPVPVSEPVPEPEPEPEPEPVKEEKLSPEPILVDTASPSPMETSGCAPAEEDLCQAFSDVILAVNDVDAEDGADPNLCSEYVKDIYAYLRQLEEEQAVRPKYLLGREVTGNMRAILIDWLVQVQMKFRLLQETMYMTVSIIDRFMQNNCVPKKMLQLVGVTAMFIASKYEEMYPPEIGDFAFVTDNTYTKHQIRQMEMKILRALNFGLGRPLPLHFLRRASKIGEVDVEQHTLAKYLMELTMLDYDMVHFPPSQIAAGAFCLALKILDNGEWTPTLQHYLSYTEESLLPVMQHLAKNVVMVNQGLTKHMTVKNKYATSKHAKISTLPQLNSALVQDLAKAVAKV
Test [5] concerns H4. Description: Luminescence Cell-Based Dose Response HTS to Identify Activators of 5'UTR Stem-Loop Driven Prion Protein mRNA Translation in H4 Neuroglioblastoma Cells. [Related pubchem assays: 1829 (Project Summary), 1814 (Primary HTS)]. In kind it is functional. To be noted: Homo sapiens.
The nature of test [6]: Cytotoxicity screening for potential Inhibitors of Bacterial Capsule Biogenesis. [Related pubchem assays (depositor defined):AID488970]. Format: functional.
For test [7], the target named is FAD-linked sulfhydryl oxidase ALR (Homo sapiens, UniProt P55789). Put plainly: ALR-catalysed DTT oxidation blockers – biochemical, H2O2 detection, luminescence, cherry-pick, dose response (AID 493248).
Sequence of FAD-linked sulfhydryl oxidase ALR (P55789 whole entry): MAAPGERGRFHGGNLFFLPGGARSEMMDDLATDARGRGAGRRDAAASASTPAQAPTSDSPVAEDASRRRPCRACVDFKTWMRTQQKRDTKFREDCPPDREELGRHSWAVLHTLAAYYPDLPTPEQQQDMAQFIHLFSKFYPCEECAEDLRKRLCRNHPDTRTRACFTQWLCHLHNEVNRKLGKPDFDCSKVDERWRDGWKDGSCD
Test [8] addresses T1, Insulin-degrading enzyme (Homo sapiens, UniProt P14735).
T1 sequence (P14735 whole entry): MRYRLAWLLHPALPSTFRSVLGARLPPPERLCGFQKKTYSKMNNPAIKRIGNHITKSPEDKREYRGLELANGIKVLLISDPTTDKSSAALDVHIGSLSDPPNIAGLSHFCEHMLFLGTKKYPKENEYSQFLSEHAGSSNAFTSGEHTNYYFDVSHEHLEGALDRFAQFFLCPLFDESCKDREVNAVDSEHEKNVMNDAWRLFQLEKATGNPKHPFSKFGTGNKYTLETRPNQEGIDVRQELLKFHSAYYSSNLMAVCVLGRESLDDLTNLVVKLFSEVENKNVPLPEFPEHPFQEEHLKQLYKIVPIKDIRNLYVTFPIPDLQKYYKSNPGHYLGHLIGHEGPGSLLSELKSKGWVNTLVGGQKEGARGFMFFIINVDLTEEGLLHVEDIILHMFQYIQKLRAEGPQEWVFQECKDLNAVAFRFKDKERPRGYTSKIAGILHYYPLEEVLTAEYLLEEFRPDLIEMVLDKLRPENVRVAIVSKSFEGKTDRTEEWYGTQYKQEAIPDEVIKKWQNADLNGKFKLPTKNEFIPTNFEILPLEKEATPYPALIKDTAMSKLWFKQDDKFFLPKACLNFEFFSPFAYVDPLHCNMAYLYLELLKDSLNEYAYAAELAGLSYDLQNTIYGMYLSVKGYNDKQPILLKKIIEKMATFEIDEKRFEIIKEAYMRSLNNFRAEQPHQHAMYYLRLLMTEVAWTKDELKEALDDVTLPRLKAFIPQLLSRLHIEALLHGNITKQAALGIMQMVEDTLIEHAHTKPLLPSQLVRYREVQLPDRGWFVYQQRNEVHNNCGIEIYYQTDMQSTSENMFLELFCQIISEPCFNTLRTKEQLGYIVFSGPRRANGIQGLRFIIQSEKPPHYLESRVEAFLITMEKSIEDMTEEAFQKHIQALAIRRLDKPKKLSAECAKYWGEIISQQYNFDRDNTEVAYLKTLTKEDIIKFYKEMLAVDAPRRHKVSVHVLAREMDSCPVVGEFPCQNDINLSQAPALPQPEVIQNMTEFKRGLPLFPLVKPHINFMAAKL
Put plainly: Dose Response: Fluorescence polarization-based cell-based high throughput dose response assay for inhibitors of insulin-degrading enzyme (IDE). [Related pubchem assays: 434962 (Primary screen (IDE inhibitors in singlicate)), 449730 (Counterscreen (Cytotoxicity in triplicate)), 435028 (Confirmation (IDE inhibitors in triplicate)), 434984 (Summary …. In kind it is functional.

The target in test [9] is G-protein coupled receptor 55 (Homo sapiens, UniProt Q9Y2T6). Put plainly: selective activators of receptor GPR55 – imaging, U2OS cells, beta-arrestin-GFP redistribution, primary screen (AID 1961). Format: functional.
Sequence of G-protein coupled receptor 55 (Q9Y2T6 whole entry): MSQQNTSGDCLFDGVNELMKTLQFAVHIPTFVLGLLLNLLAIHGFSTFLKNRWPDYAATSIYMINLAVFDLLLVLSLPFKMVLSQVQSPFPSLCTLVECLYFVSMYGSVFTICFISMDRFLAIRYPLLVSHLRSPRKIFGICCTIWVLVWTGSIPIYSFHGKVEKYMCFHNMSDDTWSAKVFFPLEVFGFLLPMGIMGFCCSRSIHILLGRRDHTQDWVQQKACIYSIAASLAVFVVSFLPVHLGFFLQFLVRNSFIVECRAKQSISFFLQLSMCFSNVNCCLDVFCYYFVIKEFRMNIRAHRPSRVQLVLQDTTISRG
In test [10] the target is T2, Short transient receptor potential channel 4 (Mus musculus, UniProt Q9QUQ5).
T2 sequence (Q9QUQ5 whole entry): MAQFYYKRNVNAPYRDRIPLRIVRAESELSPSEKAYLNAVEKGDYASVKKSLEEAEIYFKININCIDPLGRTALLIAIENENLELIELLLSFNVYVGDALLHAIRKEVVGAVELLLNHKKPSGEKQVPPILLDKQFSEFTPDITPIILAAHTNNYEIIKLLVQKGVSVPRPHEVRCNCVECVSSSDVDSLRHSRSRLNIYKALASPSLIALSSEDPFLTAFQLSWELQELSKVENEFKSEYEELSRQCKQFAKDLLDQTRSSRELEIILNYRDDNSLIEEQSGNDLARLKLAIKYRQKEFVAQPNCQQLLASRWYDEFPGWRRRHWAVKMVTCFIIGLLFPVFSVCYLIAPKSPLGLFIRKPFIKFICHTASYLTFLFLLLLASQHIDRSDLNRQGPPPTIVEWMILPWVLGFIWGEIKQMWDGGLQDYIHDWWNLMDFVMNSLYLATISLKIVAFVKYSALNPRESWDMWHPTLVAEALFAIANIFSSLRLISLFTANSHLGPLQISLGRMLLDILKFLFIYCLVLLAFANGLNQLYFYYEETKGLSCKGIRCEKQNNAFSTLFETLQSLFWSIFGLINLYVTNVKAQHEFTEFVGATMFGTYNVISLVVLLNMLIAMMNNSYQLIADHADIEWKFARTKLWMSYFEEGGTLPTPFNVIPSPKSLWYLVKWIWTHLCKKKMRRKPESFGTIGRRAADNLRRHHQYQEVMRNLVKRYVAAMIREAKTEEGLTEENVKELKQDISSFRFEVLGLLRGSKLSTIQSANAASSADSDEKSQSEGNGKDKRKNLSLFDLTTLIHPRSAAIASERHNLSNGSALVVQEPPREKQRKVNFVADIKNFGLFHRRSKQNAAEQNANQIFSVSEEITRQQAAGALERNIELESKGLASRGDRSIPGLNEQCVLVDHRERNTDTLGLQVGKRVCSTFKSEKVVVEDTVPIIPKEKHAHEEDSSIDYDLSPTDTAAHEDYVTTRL
Put plainly: calcium entry via TRPC4 opening agents – cell-based, HEK293 TRPC4/mu-opioid, Fluo-4 calcium, dose response (AID 434937). Format: functional.

Test [11] in a line: Counterscreen for IDE inhibitors: Luminescence-based cell-based high throughput dose response assay to identify compounds that are cytotoxic to HEK cells. [Related pubchem assays: 434962 (Primary screen (IDE inhibitors in singlicate)), 449730 (Counterscreen (Cytotoxicity in triplicate)), 435028 (Confirmation (IDE inhibitors in triplicate)) …. In kind it is functional. To be noted: HEK293. For orientation: The purpose of a counterscreen is to sort out artefacts and off-target activity.

Active and inactive are the calls of the source.

Sequence of Bcl-2-like protein 10 (Q9HD36 whole entry): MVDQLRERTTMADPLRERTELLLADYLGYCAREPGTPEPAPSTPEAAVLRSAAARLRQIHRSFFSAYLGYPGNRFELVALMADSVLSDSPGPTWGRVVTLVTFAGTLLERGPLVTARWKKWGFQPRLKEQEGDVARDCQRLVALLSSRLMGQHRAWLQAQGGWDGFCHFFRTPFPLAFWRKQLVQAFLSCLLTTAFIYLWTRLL
Sequence of Wee1-like protein kinase (P30291 whole entry): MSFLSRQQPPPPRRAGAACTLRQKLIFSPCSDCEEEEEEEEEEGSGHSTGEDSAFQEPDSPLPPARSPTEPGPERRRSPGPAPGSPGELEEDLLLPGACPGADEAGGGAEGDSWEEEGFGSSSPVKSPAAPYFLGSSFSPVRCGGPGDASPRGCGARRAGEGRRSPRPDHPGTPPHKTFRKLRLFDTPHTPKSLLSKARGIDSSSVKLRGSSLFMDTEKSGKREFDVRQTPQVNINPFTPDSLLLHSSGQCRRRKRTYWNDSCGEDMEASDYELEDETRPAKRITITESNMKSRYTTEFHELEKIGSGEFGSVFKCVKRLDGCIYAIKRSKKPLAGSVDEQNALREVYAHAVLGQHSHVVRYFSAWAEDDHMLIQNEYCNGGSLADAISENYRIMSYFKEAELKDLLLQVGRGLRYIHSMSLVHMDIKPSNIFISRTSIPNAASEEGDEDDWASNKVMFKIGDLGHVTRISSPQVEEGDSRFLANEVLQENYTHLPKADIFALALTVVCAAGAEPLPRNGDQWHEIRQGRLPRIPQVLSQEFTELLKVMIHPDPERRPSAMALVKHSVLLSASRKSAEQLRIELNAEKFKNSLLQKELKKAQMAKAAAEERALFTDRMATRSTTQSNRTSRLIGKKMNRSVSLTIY

As for `CCn1ccc(C(=O)Nc2ccc(S(=O)(=O)Nc3ccccc3OC)cc2)n1`, in test [1], the IC50 is > 100 µM (inactive).
As for `Cc1cccn2c1nc(=S)n2C(=O)c1ccco1`, the EC50 in [2] is > 49.7 µM (not active); in [3], 1.05 µM (active); in test [4], > 49.7 µM (not active); in [5], 0.104 µM (active).
On to `O=C(Nc1ccncc1)c1ccc2ncsc2c1`, for which, in test [6], the half-maximal cytotoxic concentration (CC50) is > 100 µM (active). Moreover, the AC50 in test [7] was 1.34 µM (active).
As to `CN(C)c1ccc(/C=C/C(=O)c2c(O)oc3ccccc3c2=O)cc1`, the results for the IC50 in test [8] and in test [11] were > 2.07 µM (active) and > 55.7 µM (not active), respectively. For the same compound, the EC50 was 19.5 µM (inactive) in test [9] and 7.5 µM (active) in [10].
